Test results taken from PubChem BioAssay AID196 (DTP/NCI, 2004).
“And” between values parts separate entries of the source, which are not always exact repeats. Equal entries are not always repeated. Inconclusive results and toxic doses are left out.

System: BDF1 mice, intracerebral B16 melanoma, median survival T/C
Assay: NCI In Vivo Anticancer Drug Screen. Data for tumor model B16 Melanoma (intracerebral) in B6D2F1 (BDF1) mice
Settings: endpoint: median survival time, higher = longer survival
Description: The antitumor activity of compounds was measured in mice bearing transplantable tumors. Survival or tumor size were measured and the results are expressed as the measurement made in the treated group (T) divided by the measurement made in the vehicle treated control group (C). The tumor model used in this assay is B16 Melanoma (intracerebral) in B6D2F1 (BDF1) mice

[1] = dose: 64.0 mg/kg/injection, schedule: Q01DX005 (ip), vehicle: saline with Tween-80
[2] = dose: 128.0 mg/kg/injection, schedule: Q01DX005 (ip), vehicle: saline with Tween-80
[3] = dose: 13.0 mg/kg/injection, schedule: Q01DX001 (ip), vehicle: saline
[4] = dose: 21.6 mg/kg/injection, schedule: Q01DX001 (ip), vehicle: saline
[5] = dose: 40.0 mg/kg/injection, schedule: Q01DX001 (ip), vehicle: Klucel (hydroxypropylcellulose) (HPC)
[6] = dose: 60.0 mg/kg/injection, schedule: Q01DX001 (ip), vehicle: Klucel (hydroxypropylcellulose) (HPC)
[7] = dose: 6.25 mg/kg/injection, schedule: Q01DX009 (ip), vehicle: other
[8] = dose: 12.5 mg/kg/injection, schedule: Q01DX009 (ip), vehicle: other
[9] = dose: 25.0 mg/kg/injection, schedule: Q01DX009 (ip), vehicle: other
[10] = dose: 50.0 mg/kg/injection, schedule: Q01DX009 (ip), vehicle: other
[11] = dose: 128.0 mg/kg/injection, schedule: Q01DX005 (ip), vehicle: saline
[12] = dose: 32.0 mg/kg/injection, schedule: Q01DX005 (ip), vehicle: saline with Tween-80
[13] = dose: 128.0 mg/kg/injection, schedule: Q01DX009 (ip), vehicle: Klucel (hydroxypropylcellulose) (HPC)
[14] = dose: 256.0 mg/kg/injection, schedule: Q01DX009 (ip), vehicle: Klucel (hydroxypropylcellulose) (HPC)

Nc1nncs1
T/C [1]: 100 % of control and 107 % of control
T/C [2]: 119 % of control and 97 % of control
T/C (dose: 256.0 mg/kg/injection, schedule: Q01DX005 (ip), vehicle: saline with Tween-80): 113 % of control
T/C (dose: 512.0 mg/kg/injection, schedule: Q01DX005 (ip), vehicle: saline with Tween-80): 113 % of control

O=NN(CCF)C(=O)NCCO
T/C [3]: 169 % of control
T/C [4]: 209 % of control
T/C (dose: 26.7 mg/kg/injection, schedule: Q01DX001 (ip), vehicle: Klucel (hydroxypropylcellulose) (HPC)): 90 % of control
T/C (dose: 36.0 mg/kg/injection, schedule: Q01DX001 (ip), vehicle: saline): 392 % of control
T/C [5]: 338 % of control
T/C [6]: 220 % of control

COc1ccc2c(c1O)-c1cccc3c1[C@@H](C2)N(CCCl)CC3
T/C (dose: 8.0 mg/kg/injection, schedule: Q01DX005 (ip), vehicle: saline): 94 % of control
T/C (dose: 16.0 mg/kg/injection, schedule: Q01DX005 (ip), vehicle: saline): 88 % of control

CN(C)N=Nc1ccnc2ccc(Br)cc12
T/C (dose: 3.12 mg/kg/injection, schedule: Q01DX009 (ip), vehicle: other): 102 % of control
T/C [7]: 102 % of control
T/C [8]: 97 % of control
T/C [9]: 107 % of control
T/C [10]: 102 % of control

O=[N+]([O-])O.[Ga]
T/C (dose: 32.0 mg/kg/injection, schedule: Q01DX005 (ip), vehicle: saline): 112 % of control
T/C (dose: 64.0 mg/kg/injection, schedule: Q01DX005 (ip), vehicle: saline): 93 % of control and 112 % of control
T/C [11]: 103 % of control

Cc1c(N)nc([C@H](CC(N)=O)NC[C@H](N)C(N)=O)nc1C(=O)N[C@H](C(=O)N[C@H](C)[C@@H](O)[C@H](C)C(=O)N[C@H](C(=O)NCCc1nc(-c2nc(C(=O)NCCC[S+](C)C)cs2)cs1)[C@@H](C)O)C(OC1OC(CO)C(O)C(O)C1OC1OC(CO)C(O)C(OC(N)=O)C1O)c1cnc[nH]1 (stereo not given in full)
T/C (dose: 4.0 mg/kg/injection, schedule: Q01DX009 (ip), vehicle: saline): 110 % of control
T/C (dose: 8.0 mg/kg/injection, schedule: Q01DX009 (ip), vehicle: saline): 120 % of control
T/C (dose: 16.0 mg/kg/injection, schedule: Q01DX009 (ip), vehicle: saline): 106 % of control

CN(C)/N=N/c1[nH]ncc1C(N)=O
T/C [1]: 154 % of control
T/C [2]: 121 % of control

NC(Cc1ccc(N(CCCl)CCCl)cc1)C(=O)O (stereo not given)
T/C (dose: 2.0 mg/kg/injection, schedule: Q01DX009 (ip), vehicle: water): 120 % of control

O=NN(CCF)C(=O)NC1C(O)CCCC1O (stereo not given)
T/C [3]: 115 % of control
T/C (dose: 17.8 mg/kg/injection, schedule: Q01DX001 (ip), vehicle: Klucel (hydroxypropylcellulose) (HPC)): 120 % of control
T/C [4]: 111 % of control
T/C [5]: 160 % of control
T/C [6]: 171 % of control
T/C (dose: 60.0 mg/kg/injection, schedule: Q01DX001 (ip), vehicle: saline): 189 % of control

O=C1C(=O)c2ccccc2C(O)=C1CC=C(Cl)Cl
T/C (dose: 10.0 mg/kg/injection, schedule: Q01DX005 (ip), vehicle: Klucel (hydroxypropylcellulose) (HPC)): 101 % of control
T/C (dose: 20.0 mg/kg/injection, schedule: Q01DX005 (ip), vehicle: Klucel (hydroxypropylcellulose) (HPC)): 98 % of control
T/C (dose: 40.0 mg/kg/injection, schedule: Q01DX005 (ip), vehicle: Klucel (hydroxypropylcellulose) (HPC)): 106 % of control

CC(=O)NNC(=O)c1ccccn1
T/C (dose: 100.0 mg/kg/injection, schedule: Q01DX005 (ip), vehicle: Klucel (hydroxypropylcellulose) (HPC)): 104 % of control and 108 % of control
T/C (dose: 200.0 mg/kg/injection, schedule: Q01DX005 (ip), vehicle: Klucel (hydroxypropylcellulose) (HPC)): 100 % of control

CCCCCN(C)/N=N/c1nc[nH]c1C(N)=O
T/C [12]: 120 % of control

CCCCN(C)N=Nc1c(C(N)=O)n[nH]c1C
T/C [12]: 121 % of control

CCCCCC(=O)O[C@]1(C(C)=O)CC[C@H]2[C@@H]3CCC4=CC(=O)CC[C@]4(C)[C@H]3CC[C@@]21C
T/C (dose: 8.0 mg/kg/injection, schedule: Q01DX009 (ip), vehicle: Klucel (hydroxypropylcellulose) (HPC)): 100 % of control
T/C (dose: 16.0 mg/kg/injection, schedule: Q01DX009 (ip), vehicle: Klucel (hydroxypropylcellulose) (HPC)): 101 % of control
T/C (dose: 32.0 mg/kg/injection, schedule: Q01DX009 (ip), vehicle: Klucel (hydroxypropylcellulose) (HPC)): 100 % of control
T/C (dose: 64.0 mg/kg/injection, schedule: Q01DX009 (ip), vehicle: Klucel (hydroxypropylcellulose) (HPC)): 100 % of control
T/C [13]: 98 % of control
T/C [14]: 94 % of control
T/C (dose: 512.0 mg/kg/injection, schedule: Q01DX009 (ip), vehicle: Klucel (hydroxypropylcellulose) (HPC)): 101 % of control

Nc1nc2c(c(=O)[nH]1)N(C=O)C(CNc1ccc(C(=O)N[C@@H](CCC(=O)O)C(=O)O)cc1)CN2 (stereo not given in full)
T/C [11]: 102 % of control
T/C (dose: 256.0 mg/kg/injection, schedule: Q01DX005 (ip), vehicle: saline): 95 % of control
T/C (dose: 512.0 mg/kg/injection, schedule: Q01DX005 (ip), vehicle: saline): 87 % of control

COCC(O)Cn1ccnc1[N+](=O)[O-] (stereo not given)
T/C [13]: 89 % of control
T/C [14]: 86 % of control

O=C(O)CC(NC(=O)CP(=O)(O)O)C(=O)O (stereo not given)
T/C (dose: 32.0 mg/kg/injection, schedule: Q04DX003 (ip), vehicle: saline): 101 % of control
T/C (dose: 64.0 mg/kg/injection, schedule: Q04DX003 (ip), vehicle: saline): 96 % of control
T/C (dose: 128.0 mg/kg/injection, schedule: Q04DX003 (ip), vehicle: saline): 90 % of control
T/C (dose: 256.0 mg/kg/injection, schedule: Q04DX003 (ip), vehicle: saline): 101 % of control
T/C (dose: 512.0 mg/kg/injection, schedule: Q04DX003 (ip), vehicle: saline): 104 % of control
T/C (dose: 1024.0 mg/kg/injection, schedule: Q04DX003 (ip), vehicle: saline): 110 % of control

CCN(CC)CCCC(C)Nc1c2ccc(Cl)cc2nc2ccc(OC)cc12 (stereo not given)
T/C (dose: 1.0 mg/kg/injection, schedule: Q01DX009 (ip), vehicle: saline with Tween-80): 96 % of control
T/C (dose: 2.0 mg/kg/injection, schedule: Q01DX009 (ip), vehicle: saline with Tween-80): 151 % of control
T/C (dose: 4.0 mg/kg/injection, schedule: Q01DX009 (ip), vehicle: saline with Tween-80): 122 % of control
T/C (dose: 8.0 mg/kg/injection, schedule: Q01DX009 (ip), vehicle: saline with Tween-80): 105 % of control and 107 % of control
T/C (dose: 16.0 mg/kg/injection, schedule: Q01DX009 (ip), vehicle: saline with Tween-80): 105 % of control
T/C (dose: 32.0 mg/kg/injection, schedule: Q01DX009 (ip), vehicle: saline with Tween-80): 105 % of control
T/C (dose: 64.0 mg/kg/injection, schedule: Q01DX009 (ip), vehicle: saline with Tween-80): 112 % of control

CC(C)=CCC1=C(O)c2ccccc2C(=O)C1=O
T/C (dose: 32.0 mg/kg/injection, schedule: Q01DX005 (ip), vehicle: Klucel (hydroxypropylcellulose) (HPC)): 98 % of control
T/C (dose: 64.0 mg/kg/injection, schedule: Q01DX005 (ip), vehicle: Klucel (hydroxypropylcellulose) (HPC)): 90 % of control and 96 % of control
T/C (dose: 128.0 mg/kg/injection, schedule: Q01DX005 (ip), vehicle: Klucel (hydroxypropylcellulose) (HPC)): 87 % of control and 105 % of control
T/C (dose: 256.0 mg/kg/injection, schedule: Q01DX005 (ip), vehicle: Klucel (hydroxypropylcellulose) (HPC)): 90 % of control and 96 % of control

NC(=O)N(CCCl)N=O
T/C (dose: 1.0 mg/kg/injection, schedule: Q01DX001 (ip), vehicle: saline + alcohol): 102 % of control
T/C (dose: 2.0 mg/kg/injection, schedule: Q01DX001 (ip), vehicle: saline + alcohol): 112 % of control
T/C (dose: 4.0 mg/kg/injection, schedule: Q01DX001 (ip), vehicle: saline + alcohol): 121 % of control

S=c1nc[nH]c2nc[nH]c12
T/C (dose: 11.3 mg/kg/injection, schedule: Q01DX009 (ip), vehicle: other): 91 % of control
T/C (dose: 22.5 mg/kg/injection, schedule: Q01DX009 (ip), vehicle: other): 100 % of control
T/C (dose: 45.0 mg/kg/injection, schedule: Q01DX009 (ip), vehicle: other): 100 % of control

CN(C)N=Nc1cccc2c1N(C)c1ccc(F)cc1S2
T/C [7]: 109 % of control
T/C [8]: 110 % of control
T/C [9]: 108 % of control
T/C [10]: 115 % of control
T/C (dose: 100.0 mg/kg/injection, schedule: Q01DX009 (ip), vehicle: other): 112 % of control

Nc1ncnc2c1ncn2C1OC(COP(=O)(O)O)C(O)C1O (stereo not given)
T/C (dose: 1600.0 mg/kg/injection, schedule: Q01DX009 (ip), vehicle: saline): 99 % of control and 102 % of control
